Measurements taken from patent publication US8580829B2 (Boehringer Ingelheim International GmbH, priority 2010, dated 2013).
Like-named read-outs stand apart in the source and are kept apart here.

Key:
[1] = system: synthesis of LTB4 in human whole blood; test: human whole blood LTB4 production inhibition assay; format: cell-based; conditions: heparinized human whole blood, calcimycin 20 μM, read-out: hWB LTB4 IC50
How it was run: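 Heparinized human whole blood preincubated with compound 15 min at 37 °C, then stimulated with calcimycin (20 μM final) for 30 min at 37 °C. Plasma LTB4 measured after low-speed centrifugation by antibody-based homogeneous time-resolved fluorescence.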

[2] = molecular target: T1, recombinant human FLAP protein (Homo sapiens, UniProt P20292); test: FLAP binding assay (Scintillation Proximity Assay, displacement of [125I]L-691,831); conditions: recombinant human FLAP membranes, [125I]L-691,831 probe; read-out: FLAP SPA IC50
T1 construct: made in house; host or cells: Sf9 insect cells (100,000 x g membrane fraction)
T1 sequence (P20292 1-161): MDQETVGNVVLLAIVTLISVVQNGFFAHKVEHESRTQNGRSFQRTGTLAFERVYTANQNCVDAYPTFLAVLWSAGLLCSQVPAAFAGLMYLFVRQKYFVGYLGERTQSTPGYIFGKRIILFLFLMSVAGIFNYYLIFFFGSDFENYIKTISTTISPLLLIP
How it was run: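 Membranes came from Sf9 insect cells expressing recombinant human FLAP, collected as the 100,000×g pellet in Tris pH 7.5/MgCl2/EDTA buffer. 5 μg membrane protein was coupled to WGA SPA beads for 1 h.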

SMILES	IC50 ([1]; Homo sapiens) [nM]	IC50 [2] [nM]	IC50 [1] [nM]
Nc1ccc(-c2ccc(C3(c4noc(-c5cnn(C6COC6)c5)n4)CCC3)cc2)cn1 [Example 252, 5-(4-{1-[5-(1-Oxetan-3-yl-1H-pyrazol-4-yl)-[1,2,4]oxadiazol-3-yl]-cyclobutyl}-phenyl)-pyridin-2-ylamine]	34	5.3	–
COC(=O)[C@H]1CN(c2cnc(-c3nc(C4(c5ccc(-c6cnc(N)nc6)cc5)CCC4)no3)cn2)CCN1 [Example 308, (R)-5′-(3-{1-[4-(2-Amino-pyrimidin-5-yl)-phenyl]-cyclobutyl}-1,2,4-oxadiazol-5-yl)-3,4,5,6-tetrahydro-2H-1,2′-bipyrazinyl-3-carboxylic acid methyl ester]	–	5	480
Cc1cc(-c2cnc(N)nc2)ccc1C1(c2noc(-c3cnn(C)c3)n2)CCC1 [Example 295]	100	12	–
CNc1ncc(-c2ccc(C3(c4noc(-c5cnn(C)c5)n4)CCC3)cc2)cn1 [Example 294, Methyl-[5-(4-{1-[5-(1-methyl-1H-pyrazol-4-yl)-[1,2,4]oxadiazol-3-yl]-cyclobutyl}-phenyl)-pyrimidin-2-yl]-amine]	35	4.4	–
CC(C)CNC(=O)Cn1cc(-c2nc(C3(c4ccc(-c5cnc(N)nc5)cc4)CCC3)no2)cn1 [Example 217, 2-[4-(3-{1-[4-(2-Amino-pyrimidin-5-yl)-phenyl]-cyclobutyl}-[1,2,4]oxadiazol-5-yl)-pyrazol-1-yl]-N-isobutyl-acetamide]	81	3.4	–
Nc1ncc(-c2ccc(C3(c4noc(-c5cnn(CC(=O)N6CCCC6)c5)n4)CCC3)cc2)cn1 [Example 137, 2-[4-(3-{1-[4-(2-Amino-pyrimidin-5-yl)-phenyl]-cyclobutyl}-1,2,4-oxadiazol-5-yl)-pyrazol-1-yl]-1-pyrrolidin-1-yl-ethanone]	170	7.7	–
CC(C)(O)Cn1cc(-c2nc(C3(c4ccc(-c5cnc(N)nc5)cc4)CC3)no2)cn1 [Example 254, 1-[4-(3-{1-[4-(2-Amino-pyrimidin-5-yl)-phenyl]-cyclopropyl}-[1,2,4]oxadiazol-5-yl)-pyrazol-1-yl]-2-methyl-propan-2-ol]	4700	190	–
Nc1ncc(-c2ccc(C3(c4noc(-c5ccc6nccn6c5)n4)CCC3)cc2)cn1 [Example 73, 5-{4-[1-(5-Imidazo[1,2-a]pyridin-6-yl-1,2,4-oxadiazol-3-yl)-cyclobutyl]-phenyl}-pyrimidin-2-ylamine]	450	6.8	–
CN(C)S(=O)(=O)n1cc(-c2nc(C3(c4ccc(-c5cnc(N)nc5)cc4)CCC3)no2)cn1 [Example 135]	190	10.4	–
Nc1ncc(-c2ccc(C3(c4noc(-c5cnc(N)nc5)n4)CCC3)cc2)cn1 [Example 18, 5-(4-{1-[5-(2-Amino-pyrimidine-5-yl)-1,2,4-oxadiazole-3-yl]-cyclobutyl}-phenyl)-pyrimidin-2-ylamine]	300	2.9	–
Nc1ncc(-c2ccc(C3(c4noc(-c5cnn(C6CCNCC6)c5)n4)CCC3)cc2)cn1 [Example 233, 5-(4-{1-[5-(1-Piperidin-4-yl-1H-pyrazol-4-yl)-[1,2,4]oxadiazol-3-yl]-cyclobutyl}-phenyl)-pyrimidin-2-ylamine]	700	9.8	–
Cn1ccnc1-c1nc(C2(c3ccc(-c4cnc(N)nc4)cc3)CCC2)no1 [Example 245, 5-(4-{1-[5-(1-Methyl-1H-imidazol-2-yl)-[1,2,4]oxadiazol-3-yl]-cyclobutyl}-phenyl)-pyrimidin-2-ylamine]	1700	38	–
COc1ccc(-c2nc(C3(c4ccc(-c5cnc(N)nc5)cc4)CCC3)no2)cc1OC [Example 50, 5-(4-{1-[5-(3,4-Dimethoxy-phenyl)-1,2,4-oxadiazol-3-yl]-cyclobutyl}-phenyl)-pyrimidin-2-ylamine]	490	4.4	–
Nc1ncc(-c2ccc(C3(c4noc(-c5ccccn5)n4)CCOCC3)cc2)cn1 [Example 145, 5-{4-[4-(5-pyridin-2-yl-1,2,4-oxadiazol-3-yl)-tetrahydro-pyran-4-yl]-phenyl}-pyrimidin-2-ylamine]	> 5000	78	–
CC(CN(C)C)n1cc(-c2nc(C3(c4ccc(-c5cnc(N)nc5)cc4)CCC3)no2)cn1 (stereo not drawn) [Example 249, 5-[4-(1-{5-[1-(2-Dimethylamino-1-methyl-ethyl)-1H-pyrazol-4-yl]-[1,2,4]oxadiazol-3-yl}-cyclobutyl)-phenyl]-pyrimidin-2-ylamine]	69	7.8	–
CC(C)NC(=O)Cn1cc(-c2nc(C3(c4ccc(-c5cnc(N)nc5)cc4)CCC3)no2)cn1 [Example 208, 2-[4-(3-{1-[4-(2-Amino-pyrimidin-5-yl)-phenyl]-cyclobutyl}-[1,2,4]oxadiazol-5-yl)-pyrazol-1-yl]-N-isopropyl-acetamide]	52	2.8	–
Nc1ncc(-c2ccc(C3(c4noc(C5CCCCN5)n4)CCC3)cc2)cn1 (stereo not drawn) [Example 283, 5-{4-[1-(5-Piperidin-2-yl-[1,2,4]oxadiazol-3-yl)-cyclobutyl]-phenyl}-pyrimidin-2-ylamine]	1400	60	–
CC(CO)n1cc(-c2nc(C3(c4ccc(-c5cnc(N)nc5)cc4)CCC3)no2)cn1 (stereo not drawn) [Example 82, 2-[4-(3-{1-[4-(2-Amino-pyrimidin-5-yl)-phenyl]-cyclobutyl}-1,2,4-oxadiazol-5-yl)-pyrazol-1-yl]-propan-1-ol]	99	3.1	–
Cn1cnc(-c2nc(C3(c4ccc(-c5ccc(N)nc5)cc4)CCC3)no2)c1 [Example 305, 5-(4-{1-[5-(1-Methyl-1H-imidazol-4-yl)-[1,2,4]oxadiazol-3-yl]-cyclobutyl}-phenyl)-pyridin-2-ylamine]	120	15	–

More lines, in order of falling IC50 [2], values ahead:

IC50 ([1]; Homo sapiens) [nM]	IC50 [2] [nM]	IC50 [1] [nM]	SMILES
64	2.8	–	Nc1ncc(-c2ccc(C3(c4noc(-c5cnn(CC(=O)NCC6CCCO6)c5)n4)CCC3)cc2)cn1 (stereo not drawn) [Example 224, 2-[4-(3-{1-[4-(2-Amino-pyrimidin-5-yl)-phenyl]-cyclobutyl}-[1,2,4]oxadiazol-5-yl)-pyrazol-1-yl]-N-(tetrahydro-furan-2-ylmethyl)-acetamide]
150	2.6	–	Nc1cnc(-c2ccc(C3(c4noc(-c5cnc(N6CCNCC6)cn5)n4)CCC3)cc2)cn1 [Example 302, 5-(4-{1-[5-(3,4,5,6-Tetrahydro-2H-[1,2′]bipyrazinyl-5′-yl)-[1,2,4]oxadiazol-3-yl]-cyclobutyl}-phenyl)-pyrazin-2-ylamine]
270	2.5	–	Nc1ncc(-c2ccc(C3(c4noc(-c5c[nH]cn5)n4)CCC3)cc2)cn1 [Example 153, 5-(4-{1-[5-(1H-Imidazol-4-yl)-1,2,4-oxadiazol-3-yl]-cyclobutyl}-phenyl)-pyrimidin-2-ylamine]
170	2.1	–	Nc1ncc(-c2ccc(C3(c4noc(-c5ccc(O)c(Cl)c5)n4)CCC3)cc2)cn1 [Example 100, 4-(3-{1-[4-(2-Amino-pyrimidin-5-yl)-phenyl]-cyclobutyl}-1,2,4-oxadiazol-5-yl)-2-chloro-phenol]
47	1.9	–	Cc1cc(-c2ccc(C3(c4noc(-c5cnn(C)c5)n4)CCC3)cc2)cnc1N [Example 221, 3-Methyl-5-(4-{1-[5-(1-methyl-1H-pyrazol-4-yl)-[1,2,4]oxadiazol-3-yl]-cyclobutyl}-phenyl)-pyridin-2-ylamine]
150	1.8	–	Nc1ncc(-c2ccc(C3(c4noc(-c5ccc(N6CCNCC6)nc5)n4)CCC3)cc2)cn1 [Example 116, 5-(4-{1-[5-(6-piperazin-1-yl-pyridin-3-yl)-1,2,4-oxadiazol-3-yl]-cyclobutyl}-phenyl)-pyrimidin-2-ylamine]
45	1.6	–	Nc1cnc(-c2nc(C3(c4ccc(-c5cnc(N)nc5)cc4)CCC3)no2)cn1 [Example 193, 5-(4-{1-[5-(5-Amino-pyrazin-2-yl)-1,2,4-oxadiazol-3-yl]-cyclobutyl}-phenyl)-pyrimidin-2-ylamine]
75	1.5	–	CCNC(=O)Cn1cc(-c2nc(C3(c4ccc(-c5cnc(N)nc5)cc4)CCC3)no2)cn1 [Example 130, 2-[4-(3-{1-[4-(2-Amino-pyrimidin-5-yl)-phenyl]-cyclobutyl}-1,2,4-oxadiazol-5-yl)-pyrazol-1-yl]-N-ethyl-acetamide]
32	1.2	–	COCCNc1ccc(-c2nc(C3(c4ccc(-c5cnc(N)nc5)cc4)CCC3)no2)nn1 [Example 111, [6-(3-{1-[4-(2-amino-pyrimidin-5-yl)-phenyl]-cyclobutyl}-1,2,4-oxadiazol-5-yl)-pyridazin-3-yl]-(2-methoxy-ethyl)-amine]
130	1.1	–	Nc1ncc(-c2ccc(C3(c4noc(-c5cnc(NCCO)cn5)n4)CCC3)cc2)cn1 [Example 68, 2-[5-(3-{1-[4-(2-Amino-pyrimidin-5-yl)-phenyl]-cyclobutyl}-1,2,4-oxadiazol-5-yl)-pyrazin-2-ylamino]-ethanol]
40	1.1	–	COCCNc1ccc(-c2nc(C3(c4ccc(-c5cnc(N)nc5)cc4)CCC3)no2)cn1 [Example 182, 5-[4-(1-{5-[6-(2-Methoxy-ethylamino)-pyridin-3-yl]-1,2,4-oxadiazol-3-yl}-cyclobutyl)-phenyl]-pyrimidin-2-ylamine]
